Assay results as given in paper PMC11249646, “Small-Molecule Disruptors of the Interaction between Calcium- and Integrin-Binding Protein 1 and Integrin αIIbβ3 as Novel Antiplatelet Agents” (ACS Pharmacology & Translational Science, 2024).
Where two headings read alike, the source gives them in different places.

Key:
[1] = molecular target: T1, CIB1 and αIIb interaction (CIB1-GST : F-αIIb peptide) (Homo sapiens, UniProt Q99828); assay: FP assay, 1536-well qHTS format (primary and confirmatory screen); assay type: binding; details: for Curve Class (confirmatory screen) / CONFIRMATORY SCREEN Curve Class: qHTS curve class
T1 construct: made in house; host or cells: BL-21 plus RIL cells (E. coli)
T1 sequence (Q99828 1-191): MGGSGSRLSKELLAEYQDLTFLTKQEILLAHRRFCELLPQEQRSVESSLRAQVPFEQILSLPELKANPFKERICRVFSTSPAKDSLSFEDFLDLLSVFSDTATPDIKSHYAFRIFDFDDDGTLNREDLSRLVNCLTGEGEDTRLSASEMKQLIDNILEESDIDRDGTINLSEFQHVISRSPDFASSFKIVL

[2] = molecular target: T2, GST-CIB1 : F-scrambled peptide (Homo sapiens, UniProt Q99828); assay: FP scrambled-peptide counter screen, 1536-well format; assay type: binding; details: for Curve Class (counterscreen) / COUNTERSCREEN Curve Class: qHTS curve class; for IC50: read-out: IC50 [μM] (counterscreen)
T2 construct: made in house; host or cells: BL-21 plus RIL cells (E. coli)
T2 sequence (Q99828 1-191): T1 sequence (Q99828 1-191)

[3] = confirmatory screen, negative sign = inhibitory curve
[4] = confirmatory screen, read-out: IC50 [μM] (confirmatory screen)
[5] = qHTS FP screen hits, Table S2, negative = inhibition
[6] = qHTS FP screen hits, Table S2, one class per curve where COUNT > 1, negative sign = inhibitory curve
[7] = qHTS FP screen hits, Table S2, read-out: IC50
[8] = counterscreen, negative sign = inhibitory curve
[9] = Table S3, confirmatory screen, YES/NO call
[10] = Table S3, confirmatory screen, a negative sign marks inhibitory curves
[11] = Table S3, confirmatory screen, negative = inhibition
[12] = Table S3, confirmatory screen, read-out: IC50 [μM] (confirmatory screen)
[13] = qHTS primary screen hits, Table S2, negative = inhibition
[14] = qHTS primary screen hits, Table S2, negative sign = inhibitory curve, several classes where COUNT > 1
[15] = qHTS primary screen hits, Table S2, read-out: IC50
[16] = Table S3, counterscreen, a negative sign marks inhibitory curves
[17] = Table S3, counterscreen, negative = inhibition
[18] = qHTS primary screen hits, Table S2, negative sign = inhibitory curve

Structure (SMILES) | Efficacy (%) (confirmatory screen) ([1]; confirmatory screen) | Confirm? (confirmatory screen) ([1]; confirmatory screen, YES/NO) | Curve Class (confirmatory screen) [1, 3] | IC50 [1, 4] [µM] | Efficacy (%) [1, 5] [%] | Curve Class [1, 6] | IC50 [1, 7] [µM] | Efficacy (%) (counterscreen) ([2]; counterscreen) | Curve Class (counterscreen) [2, 8] | Curve Class (confirmatory screen) [1, 10] | Efficacy (%) (confirmatory screen) [1, 11] | Efficacy (%) [1, 13] [%] | Curve Class [1, 14] | IC50 [1, 15] [µM] | Curve Class (counterscreen) [2, 16] | Efficacy (%) (counterscreen) [2, 17] | IC50 ([2]; Table S3, counterscreen) [µM] | other results
Nc1nc2c(s1)C(c1ccc(F)cc1F)CC(=O)N2 (stereo not shown) [NCGC00422010-03] | -39 | YES | -2.4 | 89.1 | -54 | -2.2 | 79.4 | -16 | 4 | – | – | – | – | – | – | – | – | Confirm? (counterscreen) ([2]; counterscreen, YES/NO): YES
CO[C@H](C(=O)[C@@H](O)[C@@H](C)O)[C@@H]1Cc2cc3cc(C[C@H]4C[C@H](O[C@H]5C[C@@H](O)[C@H](O)[C@@H](C)O5)[C@@H](O)[C@@H](C)O4)c(C)c(O)c3c(O)c2C(=O)[C@H]1O[C@@H]1C[C@H](O[C@@H]2C[C@H](O[C@@H]3C[C@](O)(CO)[C@@H](O)[C@H](C)O3)[C@@H](O)[C@H](C)O2)[C@@H](O)[C@H](C)O1 [NCGC00162423-04] | – | – | – | – | – | – | – | – | – | -2.1 | -183 | -51 | -2.2 | 24.1 | -1.1 | -181 | 15.8 | Confirm? (confirmatory screen) [1, 9]: YES; IC50 [1, 12]: 31.6 µM
O=c1[nH]c(=O)c2nc3ccccc3nc2[nH]1 [NCGC00015021-05] | -58 | YES | -2.2 | 44.7 | -54 | – | 33.5 | -65 | -2.2 | – | – | – | – | – | – | – | – | IC50 ([2]; counterscreen): 35.5 µM
O=C(O)C(F)(F)F.O=C(O)c1ccc(O)c2ncc(-c3n[nH]nc3-c3ccccc3)cc12 [NCGC00241764-01] | -23 | YES | -1.4 | 39.8 | -21 | – | 28.2 | -33 | 4 | – | – | – | – | – | – | – | – | Confirm? (counterscreen) ([2]; counterscreen, YES/NO): YES
O=C(O)C(F)(F)F.Oc1cccc2cc(N3CCCC3)cnc12 [NCGC00188744-01] | – | – | – | – | -48 | -2.2 | 28.2 | – | – | 4 | -14 | – | – | – | -1.4 | -34 | 17.8 | Confirm? (counterscreen) ([2]; Table S3, counterscreen, YES/NO call): YES
OC[C@H]1O[C@@H](Oc2ccc(O)c3cccc(O)c23)[C@H](O)[C@@H](O)[C@@H]1O [NCGC00385147-01] | – | – | – | – | -54 | -2.2 | 31.6 | – | – | -1.1 | -85 | – | – | – | -1.1 | -86 | 15.8 | Confirm? (confirmatory screen) [1, 9]: YES; IC50 [1, 12]: 11.2 µM
C[C@H]1COC2=C1C(=O)C(=O)c1c2ccc2c1CCCC2(C)C [NCGC00163650-02] | – | – | – | – | – | – | – | – | – | – | – | -26 | -2.4 | 30.4 | – | – | – | CONFIRMATORY SCREEN Efficacy (%) ([1]; confirmatory screen): 0%; CONFIRMATORY SCREEN Curve Class ([1]; confirmatory screen): 4; COUNTERSCREEN Efficacy (%) ([2]; counterscreen): -18%; COUNTERSCREEN Curve Class ([2]; counterscreen): 4
Cn1ccc(=Nc2ccc(NC(=O)c3ccc(/N=c4\ccn(C)c5ccc([N+](=O)[O-])cc45)cc3[N+](=O)[O-])cc2)cc1.O=C(O)C(F)(F)F [NCGC00356066-02] | -82 | YES | -1.2 | – | – | – | – | -46 | -1.2 | – | – | -65 | -2.2 | 39.8 | – | – | – | IC50 ([2]; counterscreen): 12.6 µM
CNc1oc(-c2c[nH]c3ccccc23)nc1C#N.O=C(O)C(F)(F)F [NCGC00262511-01] | – | – | – | – | – | – | – | – | – | -3 | -55 | -19 | – | 15.8 | -2.4 | -53 | 28.2 | Confirm? (confirmatory screen) [1, 9]: YES; IC50 [1, 12]: 35.5 µM; Curve Class [1, 18]: -1.4
O=C(O)c1ccccc1SC1=NS(=O)(=O)c2ccccc21 [NCGC00188636-02] | – | – | – | – | -66 | -2.2 | 44.7 | – | – | 4 | -29 | – | – | – | 4 | 0 | – | –
O=[N+]([O-])c1ccc(O)c2ncccc12 [NCGC00160664-03] | – | – | – | – | – | – | – | – | – | – | – | -25 | -1.4 | 31.6 | – | – | – | CONFIRMATORY SCREEN Efficacy (%) ([1]; confirmatory screen): 0%; CONFIRMATORY SCREEN Curve Class ([1]; confirmatory screen): 4; COUNTERSCREEN Efficacy (%) ([2]; counterscreen): -13%; COUNTERSCREEN Curve Class ([2]; counterscreen): 4
NS(=O)(=O)c1ccc(Cc2cn(-c3nc(C(=O)O)cs3)nc2-c2ccc(F)c(F)c2)cc1.O=C(O)C(F)(F)F [NCGC00356753-01] | – | – | – | – | – | – | – | – | – | 4 | -27 | -29 | -2.4 | 31.6 | – | 54 | 56.2 | –
COc1ccccc1Nc1cc2ccccc2c(O)n1 [NCGC00183215-01] | – | – | – | – | – | – | – | – | – | -2.1 | -92 | -67 | -2.2 | 50.1 | -2.1 | -136 | 35.5 | Confirm? (confirmatory screen) [1, 9]: YES; IC50 [1, 12]: 39.8 µM
O=C(O)C(F)(F)F.c1ccc(-n2ccc(-c3nnc4n3CCCCC4)c2)cc1 [NCGC00249645-01] | -104 | YES | -2.1 | 50.1 | -91 | -2.2 | 79.4 | -62 | -3 | – | – | – | – | – | – | – | – | IC50 ([2]; counterscreen): 89.1 µM
Cc1ccc(S(=O)(=O)Nc2cc3c(cc2C(=O)Nc2nc(-c4ccccc4)cs2)OCO3)cc1.O=C(O)C(F)(F)F [NCGC00263702-01] | – | – | – | – | – | – | – | – | – | 4 | -44 | -40 | – | 39.8 | – | 111 | 44.7 | Curve Class [1, 18]: -2.2
Oc1ccc(-c2nnn[nH]2)c2cccnc12 [NCGC00184885-01] | -40 | YES | -3 | 79.4 | – | – | – | -19 | -1.4 | – | – | -31 | -1.2 | 14.1 | – | – | – | IC50 ([2]; counterscreen): 35.5 µM
N#Cc1ccc(NS(=O)(=O)c2ccc(Nc3nc(-c4ccccc4)cs3)cc2)cc1.O=C(O)C(F)(F)F [NCGC00262382-01] | -103 | YES | -2.1 | 44.7 | -59 | -2.2 | 70.8 | -84 | -2.2 | – | – | – | – | – | – | – | – | IC50 ([2]; counterscreen): 44.7 µM
CCc1ccc(NC(=O)C(=O)NNC(=O)c2cccs2)cc1.O=C(O)C(F)(F)F [NCGC00244112-01] | – | – | – | – | – | – | – | – | – | 4 | 0 | -22 | – | 3.2 | – | 71 | 89.1 | Curve Class [1, 18]: -1.4
CN1CCc2ccc3c4c2[C@]1(C)Cc1cccc(c1-4)OCO3 [NCGC00168048-01] | – | – | – | – | -100 | -2.1 | 39.8 | – | – | -2.1 | -118 | – | – | – | -2.1 | -136 | 31.6 | Confirm? (confirmatory screen) [1, 9]: YES
CC(=O)NC(Cc1c[nH]c2ccccc(=O)c12)C(=O)O (stereo not shown) [NCGC00381382-01] | -74 | YES | -2.2 | 44.7 | -50 | -2.2 | 50.1 | -85 | -2.2 | – | – | – | – | – | – | – | – | IC50 ([2]; counterscreen): 89.1 µM
CCC(C)Cn1c(O)cc2nn(-c3nc4ccccc4s3)c(=O)c-2c1C.O=C(O)C(F)(F)F (stereo not shown) [NCGC00386995-01] | – | – | – | – | – | – | – | – | – | -1.4 | -40 | – | – | – | -1.2 | -51 | 11.2 | Confirm? (confirmatory screen) [1, 9]: YES; IC50 [1, 12]: 35.5 µM
